Data published in patent US11459339B2, “Biaryl derivative, preparation method thereof and pharmaceutical application thereof” (Abbisko Therapeutics Co., Ltd., priority 2018, dated 2022).

How the values were obtained:
[1] = target: interaction between PD-1 and PD-L1 (Homo sapiens (Human), UniProt Q9NZQ7); test: PD1-PDL1 HTRF binding activity test (Cisbio PD-1/PD-L1 binding assay kit); conditions: read-out: PD1-PDL1 HTRF Binding Activity IC50
[2] = target: interaction between PD-1 and PD-L1 expressed on cell surfaces (Homo sapiens (Human), UniProt Q9NZQ7); test: Jurkat reporter gene cellular assay (Jurkat/NF-κB-luc/PD1 cells cocultured with Raji-PD-L1 cells, OKT-3 stimulation); assay type: cell-based; conditions: NF-κB-luc reporter activation fold, 6 hrs; read-out: Cell Activity EC50
interaction between PD-1 and PD-L1 expressed on cell surfaces, sequence (Q9NZQ7 19-290): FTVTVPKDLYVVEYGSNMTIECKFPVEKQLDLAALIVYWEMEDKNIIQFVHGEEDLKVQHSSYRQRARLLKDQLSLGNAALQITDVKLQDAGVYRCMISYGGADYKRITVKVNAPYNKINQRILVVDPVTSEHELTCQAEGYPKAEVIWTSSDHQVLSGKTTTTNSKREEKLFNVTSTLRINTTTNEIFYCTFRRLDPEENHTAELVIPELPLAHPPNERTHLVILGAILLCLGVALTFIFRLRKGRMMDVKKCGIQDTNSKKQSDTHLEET
Outline: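 EC50 comes from non-linear regression of activation fold (compound reading over DMSO reading) against concentration. Read-out was luciferase signal 6 h after OKT-3-stimulated coculture of PD-1/NF-κB-luc Jurkat cells with PD-L1-expressing Raji cells, 5*10^4 cells each per well.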

interaction between PD-1 and PD-L1, sequence (Q9NZQ7 19-238): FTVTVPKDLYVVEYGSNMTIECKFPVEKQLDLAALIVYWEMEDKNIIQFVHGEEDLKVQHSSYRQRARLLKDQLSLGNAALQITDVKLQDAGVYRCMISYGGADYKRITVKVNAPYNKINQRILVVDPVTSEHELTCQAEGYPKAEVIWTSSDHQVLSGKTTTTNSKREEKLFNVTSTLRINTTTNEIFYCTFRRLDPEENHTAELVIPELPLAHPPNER

IC50 [1] [nM]	EC50 [2] [nM]	Compound
0.84	42.3	Cc1c(NC(=O)c2cc(C3CC3)c(CN[C@@H](CO)C(=O)O)cn2)cccc1-c1cccc(NC(=O)c2cc(C3CC3)c(CN[C@@H](CO)C(=O)O)cn2)c1C [Example 108, (2S,2′S)-2,2′-((((((2,2′-dimethyl-[1,1′-biphenyl]-3,3′-diyl)bis(azanediyl))bis(carbonyl))bis(4-cyclopropylpyridine-6,3-diyl))bis(methylene))bis(azanediyl)) bis(3-hydroxypropanoic acid)]
5.2	89	Cc1c(NC(=O)c2cc(C3CC3)c(CN[C@@H](CCO)C(=O)O)cn2)cccc1-c1cccc(NC(=O)c2cc(C3CC3)c(CN[C@@H](CCO)C(=O)O)cn2)c1C [Example 114, (2S,2′S)-2,2′-((((((2,2′-dimethyl-[1,1′-biphenyl]-3,3′-diyl)bis(azanediyl))bis(carbonyl))bis (4-cyclopropylpyridine-6,3-diyl))bis (methylene))bis(azanediyl))bis(4-hydroxybutanoic acid)]
0.94	1340	Cc1c(NC(=O)c2cc(C3CC3)c(CN[C@@H](CC(=O)O)C(=O)O)cn2)cccc1-c1cccc(NC(=O)c2cc(C3CC3)c(CN[C@@H](CC(=O)O)C(=O)O)cn2)c1C [Example 116, (2S,2′S)-2,2′-((((((2,2′-dimethyl-[1,1′-biphenyl]-3,3′-diyl)bis(azanediyl))bis(carbonyl))bis(4-cyclopropylpyridine-6,3-diyl))bis(methylene))bis(azanediyl))disuccinic acid]
1.17	1040	Cc1c(NC(=O)c2cc(C3CC3)c(CN[C@H](CC(=O)O)C(=O)O)cn2)cccc1-c1cccc(NC(=O)c2cc(C3CC3)c(CN[C@H](CC(=O)O)C(=O)O)cn2)c1C [Example 118, (2R,2′R)-2,2′-((((((2,2′-dimethyl-[1,1′-biphenyl]-3,3′-diyl)bis(azanediyl))bis(carbonyl))bis (4-cyclopropylpyridine-6,3-diyl))bis (methylene))bis(azanediyl))disuccinic acid]
1.43	1760	Cc1c(NC(=O)c2cc(C3CC3)c(CNC(C(=O)O)C(=O)O)cn2)cccc1-c1cccc(NC(=O)c2cc(C3CC3)c(CNC(C(=O)O)C(=O)O)cn2)c1C [Example 120, 2,2′-((((((2,2′-dimethyl-[1,1′-biphenyl]-3,3′-diyl)bis(azanediyl))bis(carbonyl))bis (4-cyclopropylpyridine-6,3-diyl))bis (methylene))bis(azanediyl))dimalonic acid]

Further lines, the compound ahead of its results:

Compound	IC50 [1] [nM]	EC50 [2] [nM]
COC(=O)[C@@H]1CCCCN1Cc1cnc(C(=O)Nc2cccc(-c3cccc(NC(=O)c4cc(C5CC5)c(CN5CCCC[C@H]5C(=O)OC)cn4)c3C)c2C)cc1C1CC1 [Example 109, dimethyl 1,1′-(((((2,2′-dimethyl-[1,1′-biphenyl]-3,3′-diyl)bis(azanediyl))bis(carbonyl))bis(4-cyclopropylpyridine-6,3-diyl))bis(methylene))(2S,2′S)-bis (piperidine-2-carboxylate)]	375	> 10000
Cc1c(NC(=O)c2cc(C3CC3)c(CN3CCCC[C@H]3C(=O)O)cn2)cccc1-c1cccc(NC(=O)c2cc(C3CC3)c(CN3CCCC[C@H]3C(=O)O)cn2)c1C [Example 110, (2S,2′S)-1,1′-(((((2,2′-dimethyl-[1,1′-biphenyl]-3,3′-diyl)bis(azanediyl))bis (carbonyl))bis(4-cyclopropylpyridine-6,3-diyl))bis(methylene))bis(piperidine-2-carboxylic acid)]	0.67	51
CCOC(=O)[C@@H](NCc1cnc(C(=O)Nc2cccc(-c3cccc(NC(=O)c4cc(C5CC5)c(CN[C@H](C(=O)OCC)[C@@H](C)O)cn4)c3C)c2C)cc1C1CC1)[C@@H](C)O [Example 111, diethyl 2,2′-((((((2,2′-dimethyl-[1,1′-biphenyl]-3,3′-diyl)bis (azanediyl))bis(carbonyl))bis (4-cyclopropylpyridine-6,3-diyl))bis(methylene))bis(azanediyl)) (2S,2′S,3R,3′R)-bis(3-hydroxybutanoate)]	79.4	5950
Cc1c(NC(=O)c2cc(C3CC3)c(CN[C@H](C(=O)O)[C@@H](C)O)cn2)cccc1-c1cccc(NC(=O)c2cc(C3CC3)c(CN[C@H](C(=O)O)[C@@H](C)O)cn2)c1C [Example 112, (2S,2′S,3R,3′R)-2,2′-((((((2,2′-dimethyl-[1,1′-biphenyl1]-3,3′-diyl)bis(azanediyl))bis(carbonyl))bis(4-cyclopropylpyridine-6,3-diyl))bis(methylene))bis(azanediyl))bis(3-hydroxybutanoic acid)]	1.02	34.6
Cc1c(NC(=O)c2cc(C3CC3)c(CN[C@H]3CCOC3=O)cn2)cccc1-c1cccc(NC(=O)c2cc(C3CC3)c(CN[C@H]3CCOC3=O)cn2)c1C [Example 113]	6.77	979
CCOC(=O)C[C@H](NCc1cnc(C(=O)Nc2cccc(-c3cccc(NC(=O)c4cc(C5CC5)c(CN[C@@H](CC(=O)OCC)C(=O)OCC)cn4)c3C)c2C)cc1C1CC1)C(=O)OCC [Example 115, tetraethyl 2,2′-((((((2,2′-dimethyl-[1,1′-biphenyl]-3,3′-diyl)bis(azanediyl))bis(carbonyl))bis(4-cyclopropylpyridine-6,3-diyl))bis(methylene))bis(azanediyl)) (2S,2′S)-disuccinate]	> 400	> 10000
CCOC(=O)C[C@@H](NCc1cnc(C(=O)Nc2cccc(-c3cccc(NC(=O)c4cc(C5CC5)c(CN[C@H](CC(=O)OCC)C(=O)OCC)cn4)c3C)c2C)cc1C1CC1)C(=O)OCC [Example 117, tetraethyl 2,2′-((((((2,2′-dimethyl-[1,1′-biphenyl]-3,3′-diyl)bis(azanediyl))bis(carbonyl))bis (4-cyclopropylpyridine-6,3-diyl))bis (methylene))bis(azanediyl))(2R,2′R)-disuccinate]	> 400	> 10000
CCOC(=O)C(NCc1cnc(C(=O)Nc2cccc(-c3cccc(NC(=O)c4cc(C5CC5)c(CNC(C(=O)OCC)C(=O)OCC)cn4)c3C)c2C)cc1C1CC1)C(=O)OCC [Example 119, tetraethyl 2,2′-((((((2,2′-dimethyl-[1,1′-biphenyl]-3,3′-diyl)bis(azanediyl))bis(carbonyl))bis(4-cyclopropylpyridine-6,3-diyl))bis(methylene))bis(azanediyl))dimalonate]	> 400	> 10000
CCOC(=O)CNCc1cnc(C(=O)Nc2cccc(-c3cccc(NC(=O)c4cc(C5CC5)c(CNCC(=O)OCC)cn4)c3C)c2C)cc1C1CC1 [Example 121, diethyl 2,2′-((((((2,2′-dimethyl-[1,1′-biphenyl]-3,3′-diyl)bis(azanediyl))bis(carbonyl))bis(4-cyclopropylpyridine-6,3-diyl))bis(methylene))bis(azanediyl)) diacetate]	16.6	1340
Cc1c(NC(=O)c2cc(C3CC3)c(CNCC(=O)O)cn2)cccc1-c1cccc(NC(=O)c2cc(C3CC3)c(CNCC(=O)O)cn2)c1C [Example 122, 2,2′-((((((2,2′-dimethyl-[1,1′-biphenyl]-3,3′-diyl)bis(azanediyl))bis(carbonyl))bis(4-cyclopropylpyridine-6,3-diyl))bis(methylene))bis(azanediyl)) diacetic acid]	1.14	19
